Test results: patent US20230123104A1, “CRYSTAL OF TRICYCLIC COMPOUND ACTING ON CRBN PROTEIN AND PREPARATION METHOD THEREFOR” (CHIA TAI TIANQING PHARMACEUTICAL GROUP CO., LTD., priority 2020, published 2023)

Experiments:
Type in all cases: physicochemical
[1] = Solid stability test under accelerated conditions (40° C./relative humidity at 75%, sealed)
Protocol: According to the “Guidelines for the Stability Test of APIs and Preparations” (General Principles 9001 of the Four Parts of the Chinese Pharmacopoeia, 2020 Edition), the stability of the crystalline form A of the compound of formula (I) was investigated under accelerated conditions at high temperature and high humidity (40° C./relative humidity at 75%, sealed).
(§1) 1.5 g of the crystalline form A of the compound of formula (I) was weighed into a double-layer low-density polyethylene bag. Each layer a the low-density polyethylene bag was sealed with a binding tie, and the bag was put into an aluminum foil bag. Samples were taken in months 1, 2, 3 and 6 for analysis, and the results were compared with the preliminary results of day 0. This experiment was repeated twice, each with a different batch of the crystalline form A of the compound of formula (I).

[2] = Stability test of crystalline form A in different solvents (XRPD); conditions: methanol, ethanol, acetone, acetonitrile, tetrahydrofuran, methyl tert-butyl ether, ethyl acetate, water, acetonitrile or acetone with water
Protocol: 50-mg portions of the crystalline form A of the compound of formula (I) were weighed into different 2.0 mL glass vials, and appropriate amounts of single or mixed solvents in the table below were added. After the addition of magnetic stir bars, the samples were stirred on a magnetic stirrer (25° C./50° C., 700 rpm) in the dark. The 25° C. samples were stirred for 1 week and centrifuged, and the resulting solid samples were dried in a vacuum oven at 40° C. overnight. The 50° C. samples were stirred for 2 days and centrifuged in a centrifuge tube with a filter membrane, and the solvent in the lower layer was discarded. The samples were let stand in a fume hood for 1 h so that they were air-dried. The resulting dried samples were subjected to XRPD analysis to determine their crystalline forms.

[3] = Hygroscopicity study by dynamic vapor sorption (DVS)
Protocol: In the present application, dynamic vapor sorption (DVS) analysis is performed under the following conditions: instrument: SMS DVS Advantage-1; equilibration: dm/dt=0.01%/min (shortest: 60 min, longest: 180 min); drying: drying at 0% RH for 120 min; RH (%) test gradient: 10%; range of RH (%) test gradient: 0%-90%-0%.
The evaluation of hygroscopicity was classified as follows:
Dynamic Vapor Sorption Apparatus SMS DVS Advantage-1
10-15 mg of the crystalline form A of the compound of formula (I) was placed in a DVS sample tray and tested.

[4] = Solid stability test at high temperature, at high humidity, and in intense light
Protocol: According to the “Guidelines for the Stability Test of APIs and Preparations” (General Principles 9001 of the Four Parts of the Chinese Pharmacopoeia, 2020 Edition), the stability of the crystalline form A of the compound of formula (I) was investigated at high temperature (60° C., open), at high humidity (room temperature/relative humidity at 92.5%, open), and in intense light (5000±500 Lux, 90 μw/cm^2, open).
1.5 g of the crystalline form A of the compound of formula (I) was weighed into an open measuring flask and spread out to form a thin layer. The sample for high temperature test was placed in an electrothermal drying oven and investigated, and the sample for high humidity test was placed in an integrated drug stability test chamber and investigated. Samples were taken on days 5, 10 and 30 for analysis, and the results were compared with the preliminary results of day 0. The sample for intense light test was placed in an open flask. Samples were taken on days 5 and 10 for analysis, and the results were compared with the preliminary results of day 0.

[5] = Solid stability test under long-term conditions (25° C./relative humidity at 60%, sealed)
Protocol: According to the “Guidelines for the Stability Test of APIs and Preparations” (General Principles 9001 of the Four Parts of the Chinese Pharmacopoeia, 2020 Edition), the stability of the crystalline form A of the compound of formula (I) was investigated under long-terns conditions (25° C./relative humidity at 60%, sealed).
as §1, with “layer of” for “layer a”, “foil hag.” for “foil bag.”, “months” for “months 1, 2,”

[6] = Batch 1, 40° C./relative humidity at 75%, sealed, Month 1
[7] = Batch 1, 40° C./relative humidity at 75%, sealed, Month 2
[8] = Batch 1, 40° C./relative humidity at 75%, sealed, Month 3
[9] = Batch 1, 40° C./relative humidity at 75%, sealed, Month 6
[10] = Batch 2, 40° C./relative humidity at 75%, sealed, Month 1
[11] = Batch 2, 40° C./relative humidity at 75%, sealed, Month 2
[12] = Batch 2, 40° C./relative humidity at 75%, sealed, Month 3
[13] = Batch 2, 40° C./relative humidity at 75%, sealed, Month 6
[14] = High humidity (room temperature/relative humidity 92.5%, open), Day 5
[15] = High humidity (room temperature/relative humidity 92.5%, open), Day 10
[16] = High humidity (room temperature/relative humidity 92.5%, open), Day 30
[17] = High temperature (60° C., open), Day 5
[18] = High temperature (60° C., open), Day 10
[19] = High temperature (60° C., open), Day 30
[20] = Intense light (5000 ± 500 Lux, 90 μw/cm^2, open), Day 5
[21] = Intense light (5000 ± 500 Lux, 90 μw/cm^2, open), Day 10
[22] = Batch 1, 25° C./relative humidity at 60%, sealed, Month 3
[23] = Batch 1, 25° C./relative humidity at 60%, sealed, Month 6
[24] = Batch 2, 25° C./relative humidity at 60%, sealed, Month 3
[25] = Batch 2, 25° C./relative humidity at 60%, sealed, Month 6

O=C1CCC(c2noc3ccc4[nH]ccc4c23)C(=O)N1 (stereo not drawn)
Content [1, 6]: 100.1%
Total impurities [1, 6]: 0.05%
Content [1, 7]: 100.4%
Total impurities [1, 7]: <0.05%
Content [1, 8]: 100.4%
Total impurities [1, 8]: <0.05%
Content [1, 9]: 98.1%
Total impurities [1, 9]: <0.05%
Content ([1]; Batch 1, Day 0): 98.9%
Total impurities ([1]; Batch 1, Day 0): <0.05%
Content [1, 10]: 100.0%
Total impurities [1, 10]: 0.05%
Content [1, 11]: 100.2%
Total impurities [1, 11]: <0.05%
Content [1, 12]: 100.2%
Total impurities [1, 12]: <0.05%
Content [1, 13]: 99.2%
Total impurities [1, 13]: <0.05%
Appearance ([1]; Batch 2, Day 0): White powder
Content ([1]; Batch 2, Day 0): 100.2%
Total impurities ([1]; Batch 2, Day 0): <0.05%
solid stability (conclusion) ([1]; accelerated conditions at 40° C. with relative humidity at 75%): good stability
stability in solvents (conclusion) [2]: good stability
hygroscopicity classification ([3]; 25° C., 80% RH, DVS): no or almost no hygroscopicity
crystalline form after DVS test ([3]; after DVS): remained unchanged
Content ([4]; Day 0): 98.9%
Total impurities ([4]; Day 0): <0.05%
Content [4, 14]: 100.7%
Total impurities [4, 14]: <0.05%
Content [4, 15]: 100.2%
Total impurities [4, 15]: <0.05%
Content [4, 16]: 100.4%
Total impurities [4, 16]: <0.05%
Content [4, 17]: 99.9%
Total impurities [4, 17]: <0.05%
Content [4, 18]: 100.2%
Total impurities [4, 18]: <0.05%
Content [4, 19]: 100.2%
Total impurities [4, 19]: <0.05%
Content [4, 20]: 100.7%
Total impurities [4, 20]: <0.05%
Content [4, 21]: 100.0%
Total impurities [4, 21]: <0.05%
solid stability (conclusion) ([4]; at high temperature, at high humidity, and in intense light): good stability
Content [5, 22]: 99.8%
Total impurities [5, 22]: <0.05%
Content [5, 23]: 99.2%
Total impurities [5, 23]: <0.05%
Content ([5]; Batch 1, Day 0): 98.9%
Total impurities ([5]; Batch 1, Day 0): <0.05%
Appearance [5, 24]: White powder
Content [5, 24]: 100.4%
Total impurities [5, 24]: <0.05%
Appearance [5, 25]: White powder
Content [5, 25]: 100.4%
Total impurities [5, 25]: <0.05%
Appearance ([5]; Batch 2, Day 0): White powder
Content ([5]; Batch 2, Day 0): 100.2%
Total impurities ([5]; Batch 2, Day 0): <0.05%
solid stability (conclusion) ([5]; long-term conditions at 25° C. with relative humidity at 60%): good stability
